# Measurements from patent EP0175291B1, “Novel alpha-D-mannosidase inhibitor” (MICROBIAL CHEMISTRY RESEARCH FOUNDATION, priority 1984, dated 1986).
# Entries after “also recorded” stand apart in the source; their conditions may differ.
# Assays:
# [1] = tested on: α-D-mannosidase of the leguminous plant origin; conditions: qualitative, prior art; cited from earlier work
# [2] = target: T1, α-D-mannosidase of the rat epididymis origin (Rattus norvegicus, UniProt Q6P762); assay: α-D-mannosidase inhibitory activity, colorimetric, p-nitrophenyl-α-D-mannopyranoside substrate; format: biochemical; conditions: qualitative statement
# T1 sequence (Q6P762 50-1009): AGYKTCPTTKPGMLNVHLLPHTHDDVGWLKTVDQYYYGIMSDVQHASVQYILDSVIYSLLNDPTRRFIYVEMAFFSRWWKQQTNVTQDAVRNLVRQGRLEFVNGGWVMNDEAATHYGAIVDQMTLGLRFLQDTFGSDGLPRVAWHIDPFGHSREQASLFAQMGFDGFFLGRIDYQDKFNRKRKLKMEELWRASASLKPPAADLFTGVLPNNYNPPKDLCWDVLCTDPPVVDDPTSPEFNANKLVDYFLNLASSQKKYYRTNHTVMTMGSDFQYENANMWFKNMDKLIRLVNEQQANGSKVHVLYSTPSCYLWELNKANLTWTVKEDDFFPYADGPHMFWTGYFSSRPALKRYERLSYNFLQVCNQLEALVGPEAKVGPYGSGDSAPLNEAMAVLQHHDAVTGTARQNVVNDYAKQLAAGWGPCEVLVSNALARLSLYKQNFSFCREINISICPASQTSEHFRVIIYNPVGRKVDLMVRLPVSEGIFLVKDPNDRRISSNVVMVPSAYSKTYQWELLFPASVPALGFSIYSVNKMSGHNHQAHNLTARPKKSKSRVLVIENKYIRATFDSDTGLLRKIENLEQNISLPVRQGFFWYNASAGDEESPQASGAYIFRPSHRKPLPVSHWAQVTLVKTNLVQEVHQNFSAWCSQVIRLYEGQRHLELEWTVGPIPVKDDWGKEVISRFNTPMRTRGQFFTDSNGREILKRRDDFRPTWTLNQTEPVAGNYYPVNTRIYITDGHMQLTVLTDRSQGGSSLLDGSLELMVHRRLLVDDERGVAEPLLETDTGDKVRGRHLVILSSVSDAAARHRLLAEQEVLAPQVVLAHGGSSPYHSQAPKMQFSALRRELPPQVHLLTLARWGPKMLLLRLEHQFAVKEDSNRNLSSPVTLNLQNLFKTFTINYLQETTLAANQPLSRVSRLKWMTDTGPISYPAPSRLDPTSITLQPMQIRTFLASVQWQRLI
# Method: Assay of the compounds according to this invention is performed by measuring their α-D-mannosidase inhibitory activity. The activity of α-D-mannosidase is determined by colorimetrically measuring the amount of p-nitrophenol that has been liberated when p-nitrophenyl-α-D-mannopyranoside (Koch-Light Laboratories, England) as a substrate is hydrolyzed with α-D-mannosidase of the rat epididymis origin (a fraction obtained by precipitation with 20 - 80% ammonium sulfate at the Institute of Microbial Chemistry). Details of said procedure are as follows: p-Nitro-phenyl-α-D-mannopyranoside is dissolved in 50% methanol to make a 0.04M solution. To 0.05 ml of the 0.04M substrate solution are added 0.25 ml of a 0.1M acetate buffer (pH 4.5) and 0.15 ml of water or an aqueous solution containing the test compound. The mixture is heated at 37°C for 3 minutes, and 0.05 ml of -D-mannosidase is added. […] The reaction mixture is measured for the absorbance (A) at 400 nm. Separately, the control mixture comprising only water and being free from the aforesaid test compound solution is measured for the absorbance termed (b). The α-D-mannosidase inhibition rate (%) is calculated from the equation (b - a)/b x 100. […]
Structure (SMILES),"inhibition of α-D-mannosidase of the leguminous plant origin, in words [1]","inhibition of α-D-mannosidase of the animal origin (rat epididymides), in words [2]"
O[C@H]1[C@H]2[C@H](O)CCCN2C[C@H]1O [Swainsonine],inhibits,–
C[S+]([O-])C1C(N)C(O)C(O)C1O (stereo not drawn) [mannostatin S-oxide],–,stronghly inhibit; also recorded: strongly inhibit
CSC1C(N)C(O)C(O)C1O (stereo not drawn) [mannostatin],–,stronghly inhibit; also recorded: strongly inhibit
